The values that follow come from ChEMBL document CHEMBL1154016, “An efficient synthesis and biological study of novel indolyl-1,3,4-oxadiazoles as potent anticancer agents” (Bioorg Med Chem Lett, 2009).

Some results are limits rather than exact numbers.

Test [1] has as its system LNCaP. The test is described as follows: Cytotoxicity against human LNCAP cells by MTT assay. It is filed as functional, cell-based.
Test [2] deals with PC-3. The test is described as follows: Cytotoxicity against human PC3 cells by MTT assay. It is filed as functional, cell-based.
For test [3], the system named is MDA-MB-231. The test is described as follows: Cytotoxicity against human MDA-MB-231 cells by MTT assay. It is filed as functional, cell-based.
Test [4] concerns MIA PaCa-2. The test is described as follows: Cytotoxicity against human MIAPaCa2 cells by MTT assay. The class given is functional, cell-based. On the technique in general: Tetrazolium assays rely on reduction of a dye to a coloured formazan, in cell work by metabolically active cells.
Test [5] concerns MCF7. Briefly: Cytotoxicity against human MCF7 cells by MTT assay. The class given is functional, cell-based.
Test [6] relates to DU-145. The test is described as follows: Cytotoxicity against human DU145 cells by MTT assay. It is filed as functional, cell-based.
In test [7] the test system is MCF7. The test is described as follows: Selectivity ratio of IC50 for human MIAPaCa2 cells to IC50 for human MCF7 cells. The class given is functional.

In general, IC50 refers to the concentration needed to halve the response being measured. A higher IC50 goes with weaker potency in that assay. Consider `Clc1ccc(-c2nnc(-c3c[nH]c4ccccc34)o2)cc1`, for which the IC50 is 583 µM in test [1]; 41.6 µM in test [2]; greater than 1000 µM in test [3]; 6460 µM in test [4]; 48.2 µM in test [5]; 192 µM in test [6].
As for `COc1cc(-c2nnc(-c3c[nH]c4ccccc34)o2)ccc1OCc1ccccc1`, the IC50 in test [1], in test [2], in test [3], in test [4], in test [5] and in test [6] was greater than 1000 µM each time.
With `c1ccc(-c2nnc(-c3c[nH]c4ccccc34)o2)cc1`, the IC50 was greater than 1000 µM in test [1]; greater than 1000 µM in test [2]; greater than 1000 µM in test [3]; greater than 1000 µM in test [4]; 388 µM in test [5]; greater than 1000 µM in test [6].
On to `COc1ccc(-c2nnc(-c3c[nH]c4ccccc34)o2)cc1`, for which the IC50 in test [1], in test [2], in test [3], in test [4], in test [5] and in test [6] was greater than 1000 µM throughout.
In the case of `COc1cc(-c2nnc(-c3c[nH]c4ccccc34)o2)ccc1O`, the IC50 in test [1], in test [2], in test [3], in test [4], in test [5] and in test [6] was greater than 1000 µM throughout.
For the compound `c1ccc2c(-c3nnc(-c4ccncc4)o3)c[nH]c2c1`, the IC50 was 10 µM in test [1]; 4.1 µM in test [2]; greater than 1000 µM in test [3]; 1.6 µM in test [4]; 1 µM in test [5]; 20.4 µM in test [6].
With `Cc1nnc(-c2c[nH]c3ccccc23)o1`, the IC50 in test [1] was greater than 1000 µM; in test [2], greater than 1000 µM; in test [3], greater than 1000 µM; in test [4], 145 µM; in test [5], 198 µM; in test [6], greater than 1000 µM.
In the case of `COc1ccc(-c2nnc(-c3c[nH]c4ccccc34)o2)c(OC)c1OC`, the IC50 in test [1] is greater than 1000 µM; in test [2], greater than 1000 µM; in test [3], greater than 1000 µM; in test [4], greater than 1000 µM; in test [5], 121 µM; in test [6] it was greater than 1000 µM.
Consider `FC(F)(F)c1nnc(-c2c[nH]c3ccccc23)o1`, for which the half-inhibitory concentration (IC50) in test [1], in test [2], in test [3], in test [4], in test [5] and in test [6] was greater than 1000 µM in each case.
Consider `c1cncc(-c2nnc(-c3c[nH]c4ccccc34)o2)c1`, for which the IC50 in test [1] is 69.4 µM; in test [2] it was 711 µM; in test [3] it was greater than 1000 µM; in test [4], 0.9 µM; in test [5], 5.4 µM; in test [6] it was 170 µM.
`c1ccc(Cc2nnc(-c3c[nH]c4ccccc34)o2)cc1`: the IC50 in test [1] is greater than 1000 µM; in test [2] it was greater than 1000 µM; in test [3], greater than 1000 µM; in test [4], 934 µM; in test [5] it was 39.2 µM; in test [6], greater than 1000 µM. For the same compound, the “Ratio IC50” value in test [7] is given as 24.
As to `COc1ccc(-c2nnc(-c3c[nH]c4ccccc34)o2)cc1OC`, the IC50 is greater than 1000 µM in test [1]; greater than 1000 µM in test [2]; greater than 1000 µM in test [3]; greater than 1000 µM in test [4]; 557 µM in test [5]; greater than 1000 µM in test [6].
On to `COc1cc(-c2nnc(-c3cn(C)c4ccccc34)o2)ccc1OCc1ccccc1`, for which the IC50 in test [1] is greater than 1000 µM; in test [2], greater than 1000 µM; in test [3], greater than 1000 µM; in test [4], 1.4 µM; in test [5] it was 35.2 µM; in test [6] it was greater than 1000 µM.
